Series [1] has as its target T1, human apurinic/apyrimidinic endonuclease 1 (APE1) (Homo sapiens, UniProt P27695).
T1 construct: His; made in house
Nature of the series: APE1 inhibition assay. The format is biochemical. To be noted: read-out: Inhibition of APE1 catalytic activity IC50. The method, then: (§1) All compounds were dissolved in DMSO to a final stock concentration of 10 mM and stored at −20 °C. Initial screening for IN inhibitory effect was done at 100 μM and dilutions were made in DMSO. Compounds showing at least 50% inhibition at 100 μM were selected for IC50 determinations. γ-[^32P]-ATP was purchased from Perkin Elmer (Waltham, MA, USA). The expression system for wild-type IN was a generous gift of Dr. Robert Craigie, Laboratory of Molecular Biology, NIDDK, NIH (Bethesda, MD, USA). His-tagged APE1 was purified from an expression system kindly provided by Dr. Tom Curran, Department of Developmental Neurobiology, St. Jude Children’s Research Hospital (Memphis, TN, USA).
(§2) 21-mer oligonucleotides used in IN inhibition assay [21top (5’-[…]-3’) and 21bot (5’-ACTGCTAGAGATTTTCCA CAC-3’)] were purchased from Integrated DNA Technologies (Coralville, IA, USA) and purified by UV shadowing on polyacrylamide gel. The oligonucleotides used in APE1 inhibition assay [top strand: 5′-ATTTCACCGGTACG(F)TCTAGAATC CG-3′ containing the tetrahydrofuran synthetic abasic residue (F), and bottom strand: 3′-TAAAGTGG CCATGC(C)AGATCTTAGGC-5′] were purchased from The Midland Certified Reagent Company (Midland, TX, USA). To analyze the extent of 3’-processing and strand transfer with 5’-end labeled substrates, 21top was 5’-end labeled using T4 polynucleotide kinase (Epicentre, Madison, WI, USA) and [γ-^32P]-ATP (Perkin Elmer, Waltham, MA, USA). The kinase was heat-inactivated at 95 °C and 21bot was added in […]. The reaction mixture was allowed to cool slowly to room temperature, and purified through a spin-25 minicolumn (USA Scientific, Ocala, FL, USA) to separate annealed double-stranded oligonucleotide from unincorporated material. The oligonucleotides used in the APE1 inhibition assay were labeled using a similar protocol.
APE1 inhibition assay was performed as previously described. To determine the extent of endonucleolytic cleavage of the abasic residue, the test compounds, diluted in DMSO, were preincubated with recombinant APE1 at a final concentration of 0.05 nM in the reaction buffer [50 mM NaCl, 1 mM HEPES, pH 7.5, 50 μM EDTA, 50 μM dithiothreitol, 10% glycerol (w/v), 7.5 mM MnCl2, 0.1 mg mL‑1 bovine serum albumin, 10 mM 2-mercaptoethanol, 10% DMSO, and 25 mM MOPS, pH 7.2] at 30 °C for 10 min. Following preincubation, 200 nM of the 5′-end ^32P-labeled linear oligonucleotide substrate was added, and incubated for an additional 10 minutes. Reactions were quenched by the addition of an equal volume (16 μL) of loading dye (98% deionized formamide, 10 mM EDTA, 0.025% xylene cyanol, and 0.025% bromophenol blue). An aliquot (5 μL) was electrophoresed on a denaturing 20% polyacrylamide gel (0.09 M tris-borate pH 8.3, 2 mM EDTA, 20% acrylamide, 8 M urea). The gels were dried, exposed in a PhosphorImager cassette and analyzed using a Typhoon 8610 Variable Mode Imager (Amersham Biosciences). Quantification of enzyme inhibition was done using Image Quant 5.2 software. The percent inhibition (% I) was calculated using the following equation: %I = 100 × [1 − (D − C) / (N − C)] where C, N, and D are the fractions of 26-mer substrate converted to 13-mer incision products (or integration products) for DNA alone, DNA plus APE1, and DNA, APE1 plus test compound, respectively. IC50 values were determined by plotting the logarithm of compound concentration as a function of %I to obtain the concentration that produced 50% inhibition. An optimum concentration of APE1 enzyme, at which there is complete conversion of the synthetic abasic-site containing oligonucleotide substrate to its cleaved product without subsequent exonuclease activity, was used in the assay.

A further series deals with T2, HIV-1 IN (Human immunodeficiency virus type 1 group M subtype B, UniProt P12497).
T2 construct: pre-incubated with purified recombinant IN (at a final concentration of 200 nM); made in house
The series can be described thus: In vitro IN inhibition assay (3’-processing and strand transfer). It counts as biochemical. To be noted: Mn2+ cofactor (7.5 mM MnCl2). The procedure: as §1, §2
To determine the extent of 3’-processing and strand transfer, the test compounds, diluted in DMSO, were pre-incubated with purified recombinant IN (at a final concentration of 200 nM) in the reaction buffer [50 mM NaCl, 1 mM HEPES (pH 7.5), 50 μM EDTA, 50 μM dithiothreitol, 10% glycerol (w/v), 7.5 mM MnCl2, 0.1 mg mL–1 bovine serum albumin, 10 mM 2-mercaptoethanol, 10% dimethyl sulfoxide, and 25 mM MOPS (pH 7.2)] at 30 °C for 30 min. For Mg^2+ assay, 7.5 mM MgCl2 was substituted for MnCl2 and an optimal concentration of PEG was included in the reaction buffer. Following the pre-incubation, 20 nM of the 5’-end ^32P-labeled linear oligonucleotide substrate was added to the reaction mixture and incubated for an additional 1 h. Reactions were quenched by addition of 50X loading dye (98% deionized formamide, 10 mM EDTA, 0.025% xylene cyanol, and 0.025 % bromophenol blue). An aliquot was subjected to electrophoresis on a denaturing polyacrylamide gel (0.09 M tris–borate, pH 8.3, 2 mM EDTA, 20% acrylamide, 8M urea). Gels were dried under vacuum, exposed in a PhosphorImager cassette and visualized with a Typhoon 8610 Variable Mode Imager (Amersham Biosciences). Quantification was done with Image Quant 5.2 software. Percent inhibition (%I) was calculated using the following equation: %I = 100 × [1 − (D − C) / (N − C)] where C, N, and D are the fractions of 21-mer substrate converted into 19-mer (product of 3’-processing) or strand-transfer products for DNA alone, DNA plus IN, and DNA, IN plus test compound, respectively. IC50 values were determined by plotting the logarithm of test compound concentrations as a function of %I to obtain the concentration that produced 50% inhibition.

[2] abbreviates: read-out: Inhibition of IN catalytic activity IC50, 3’-Processing.
Where [3] appears, read: read-out: Inhibition of IN catalytic activity IC50, Strand Transfer.

Where two headings read alike, the source gives them in different places.

T1 sequence (P27695 whole entry): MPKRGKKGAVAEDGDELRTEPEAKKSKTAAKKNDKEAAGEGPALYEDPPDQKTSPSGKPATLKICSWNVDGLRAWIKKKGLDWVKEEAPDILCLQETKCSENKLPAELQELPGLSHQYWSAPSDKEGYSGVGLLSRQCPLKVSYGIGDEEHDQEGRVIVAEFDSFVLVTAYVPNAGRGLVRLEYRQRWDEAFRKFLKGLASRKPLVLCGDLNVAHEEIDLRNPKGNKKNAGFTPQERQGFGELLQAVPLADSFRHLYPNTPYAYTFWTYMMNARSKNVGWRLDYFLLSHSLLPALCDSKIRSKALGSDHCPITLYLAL

The IC50 is the concentration at which inhibition is half-maximal. Usually melting point stands for the temperature of the solid-liquid transition. For `O=C(Nc1cc(C(F)(F)F)cc(C(F)(F)F)c1)C(=S)NN1C(=O)C(=Cc2ccc([N+](=O)[O-])o2)SC1=S` [Compound 16, N-[3,5-bis(trifluoromethyl)phenyl]-2-{5-[(5-nitro-2-furyl)methylene]-4-oxo-2-thioxo-1,3-thiazolidin-3-yl}amino-2-thioxoacetamide], the melting point fell in the range of 195 to 196 °C. The IC50 in series [1] was over 100 µM. In addition, at HIV-1 IN (setting [2]), the IC50 is over 100 µM. Also, on HIV-1 IN (setting [3]), the IC50 worked out at 74 ± 20 µM.
The compound `COc1ccc(NC(=O)C(=S)NN2C(=O)C(=Cc3ccc([N+](=O)[O-])o3)SC2=S)cc1OC` [Compound 18, N-(3,4-dimethoxyphenyl)-2-{5-[(5-nitro-2-furyl)methylene]-4-oxo-2-thioxo-1,3-thiazolidin-3-yl}amino-2-thioxoacetamide] came in with a melting point of 156 to 157 °C. Besides, the IC50 in series [1] was over 100 µM. Also, on HIV-1 IN (setting [2]), the IC50 was 34 ± 10 µM. Also, on HIV-1 IN (setting [3]), the IC50 came out at 14 ± 5 µM.
`COc1cc(NC(=O)C(=S)NN2C(=O)C(=Cc3ccc([N+](=O)[O-])o3)SC2=S)cc(OC)c1OC` [Compound 19, 2-{5-[(5-Nitro-2-furyl)methylene]-4-oxo-2-thioxo-1,3-thiazolidin-3-yl}amino-2-thioxo-N-(3,4,5-tri-methoxyphenyl)acetamide] gave a melting point of 201 to 202 °C. Besides, the IC50 in series [1] was over 100 µM. Moreover, on HIV-1 IN (setting [2]), the IC50 amounted to 40 ± 28 µM. For the same compound, the IC50 at HIV-1 IN (setting [3]) stood at 25 ± 11 µM.
`CCOc1cc(-n2cnnn2)c(OCC)cc1NC(=O)C(=S)NN1C(=O)C(=Cc2ccc([N+](=O)[O-])o2)SC1=S` [Compound 20, N-[2,5-diethoxy-4-(1H-tetrazol-1-yl)phenyl]-2-{5-[(5-nitro-2-furyl)methylene]-4-oxo-2-thioxo-1,3-thiazolidin-3-yl}amino-2-thioxoacetamide]: the melting point lay within 136 to 138 °C. In addition, the half-maximal inhibitory concentration (IC50) in series [1] was over 100 µM. Also, at HIV-1 IN (setting [2]), the IC50 is over 100 µM. Besides, the 50% inhibitory concentration (IC50) on HIV-1 IN (setting [3]) turned out to be 85 ± 21 µM.
With `Cc1cc(NC(=O)C(=S)NN2C(=O)/C(=C\c3ccc([N+](=O)[O-])o3)SC2=S)ccc1-n1cnnn1` [Compound 21, N-[3-methyl-4-(1H-tetrazol-1-yl)phenyl]-2-{5-[(5-nitro-2-furyl)methylene]-4-oxo-2-thioxo-1,3-thia-zolidin-3-yl}amino-2-thioxoacetamide], the melting point lay in the range of 161 to 162 °C. The IC50 in series [1] is over 100 µM. On HIV-1 IN (setting [2]), the IC50 was over 100 µM. The IC50 on HIV-1 IN (setting [3]) was over 100 µM.
As for `COc1cc(C=C2SC(=S)N(NC(=S)C(=O)Nc3cc(OC)c(OC)c(OC)c3)C2=O)cc(OC)c1OC` [Compound 22, 2-{[4-Oxo-2-thioxo-5-(3,4,5-trimethoxybenzylidene)-1,3-thiazolidin-3-yl]amino}-2-thioxo-N-(3,4,5-tri-methoxyphenyl)acetamide], the melting point lay within 196 to 197 °C. Further, the IC50 in series [1] was over 100 µM. On HIV-1 IN (setting [2]), the IC50 was over 100 µM. Besides, at HIV-1 IN (setting [3]), the IC50 was determined as 90 µM.
Take `CCOc1cc(-n2cnnn2)c(OCC)cc1NC(=O)C(=S)NN1C(=O)C(=Cc2cc(OC)c(OC)c(OC)c2)SC1=S` [Compound 23, N-[2,5-diethoxy-4-(1H-tetrazol-1-yl)phenyl]-2-{[4-oxo-2-thioxo-5-(3,4,5-trimethoxybenzylidene)-1,3-thiazolidin-3-yl]amino}-2-thioxoacetamide]: the melting point fell in the range of 158 to 159 °C. Moreover, in series [1], the IC50 is 83 µM. Moreover, on HIV-1 IN (setting [2]), the IC50 was over 100 µM. Besides, on HIV-1 IN (setting [3]), the IC50 is over 100 µM.
On to `COc1cc(C=C2SC(=S)N(NC(=S)C(=O)Nc3ccc(-n4cnnn4)c(C)c3)C2=O)cc(OC)c1OC` [Compound 24, N-[3-methyl-4-(1H-tetrazol-1-yl)phenyl]-2-{[4-oxo-2-thioxo-5-(3,4,5-trimethoxybenzylidene)-1,3-thiazolidin-3-yl]amino}-2-thioxoacetamide], for which the melting point lay in the range of 173 to 174 °C. Further, in series [1], the IC50 was over 100 µM. In addition, at HIV-1 IN (setting [2]), the IC50 was over 100 µM. Further, the IC50 at HIV-1 IN (setting [3]) is over 100 µM.
Compound `COc1cc(C=C2SC(=S)N(NC(=S)C(=O)Nc3cccc(C(F)(F)F)c3)C2=O)cc(OC)c1OC` [Compound 25, 2-{[4-Oxo-2-thioxo-5-(3,4,5-trimethoxybenzylidene)-1,3-thiazolidin-3-yl]amino}-2-thioxo-N-[3-(tri-fluoromethyl)phenyl]acetamide] gave a melting point of 160 to 161 °C. In addition, the IC50 in series [1] is over 100 µM. Moreover, the IC50 on HIV-1 IN (setting [2]) was over 100 µM. For the same compound, on HIV-1 IN (setting [3]), the IC50 was over 100 µM.
Compound `COc1cc(NC(=O)C(=S)NN2C(=O)C(=Cc3cc(Cl)ccc3O)SC2=S)cc(OC)c1OC` [Compound 27, 2-{[5-(5-Chloro-2-hydroxybenzylidene)-4-oxo-2-thioxo-1,3-thiazolidin-3-yl]amino}-2-thioxo-N-(3,4,5-trimethoxyphenyl)acetamide] had a melting point of 216 to 217 °C. Also, the IC50 in series [1] was over 100 µM. For the same compound, the IC50 at HIV-1 IN (setting [2]) was determined as 83 ± 25 µM. Also, on HIV-1 IN (setting [3]), the IC50 worked out at 20 µM.
Take `COc1cc(NC(=O)C(=S)NN2C(=O)C(=Cc3cc(Br)ccc3O)SC2=S)cc(OC)c1OC` [Compound 28, 2-{[5-(5-Bromo-2-hydroxybenzylidene)-4-oxo-2-thioxo-1,3-thiazolidin-3-yl]amino}-2-thioxo-N-(3,4,5-trimethoxyphenyl)acetamide]: the melting point was in the range of 208 to 209 °C. The IC50 in series [1] is over 100 µM. Besides, the IC50 at HIV-1 IN (setting [2]) is 44 ± 13 µM. Moreover, the IC50 on HIV-1 IN (setting [3]) is 30 ± 19 µM.
Take `COc1cc(NC(=O)C(=S)NN2C(=O)C(=Cc3cccc([N+](=O)[O-])c3O)SC2=S)cc(OC)c1OC` [Compound 29, 2-{[5-(2-Hydroxy-3-nitrobenzylidene)-4-oxo-2-thioxo-1,3-thiazolidin-3-yl]amino}-2-thioxo-N-(3,4,5-trimethoxyphenyl)acetamide]: the melting point lay in the range of 193 to 194 °C. Moreover, the IC50 in series [1] was over 100 µM. For the same compound, on HIV-1 IN (setting [2]), the IC50 amounted to 74 ± 18 µM. On HIV-1 IN (setting [3]), the IC50 came out at 72 ± 23 µM.

These data come from article PMC6264390, “Design, Synthesis and Structure-activity Studies of Rhodanine Derivatives as HIV-1 Integrase Inhibitors” (Molecules, 2010).
